The CheMixHub viscosity set
± gives the uncertainty stated by the source.

Test: xn = mol fraction of the nth substance listed

CCN(CC)CC + Cc1ccccc1
303.15 K, 101 kPa
Details | viscosity [mPa·s]
x1 = 0.01196 | 0.5137 ± 0.0046
x1 = 0.02231 | 0.5093 ± 0.0046
x1 = 0.03105 | 0.5049 ± 0.0047
x1 = 0.04186 | 0.4993 ± 0.0045
x1 = 0.04881 | 0.4963 ± 0.0045
x1 = 0.0617 | 0.4911 ± 0.0045
x1 = 0.0685 | 0.4859 ± 0.0045
x1 = 0.07915 | 0.4823 ± 0.0042
x1 = 0.09159 | 0.4786 ± 0.0042
x1 = 0.1002 | 0.4755 ± 0.0042

ClC(Cl)(Cl)Cl + Cc1ccccc1C
298.15 K, 101 kPa
Details | viscosity [mPa·s]
x1 = 0.0656 | 0.722 ± 0.011
x1 = 0.2424 | 0.636 ± 0.01
x1 = 0.4464 | 0.606 ± 0.009
x1 = 0.5536 | 0.628 ± 0.01
x1 = 0.5803 | 0.639 ± 0.01
x1 = 0.6341 | 0.666 ± 0.01
x1 = 0.793 | 0.772 ± 0.012
x1 = 0.9312 | 0.872 ± 0.014

CCCOC(C)=O + ClC(Cl)(Cl)Cl
101.33 kPa
Details | viscosity [mPa·s]
303.15 K, x2 = 0.0422 | 0.526 ± 0.005
303.15 K, x2 = 0.1298 | 0.547 ± 0.005
303.15 K, x2 = 0.2541 | 0.576 ± 0.005
303.15 K, x2 = 0.3334 | 0.598 ± 0.005
303.15 K, x2 = 0.488 | 0.639 ± 0.005
303.15 K, x2 = 0.5271 | 0.657 ± 0.005
303.15 K, x2 = 0.6005 | 0.676 ± 0.006
303.15 K, x2 = 0.7049 | 0.716 ± 0.006
303.15 K, x2 = 0.8748 | 0.784 ± 0.006
303.15 K, x2 = 0.9403 | 0.815 ± 0.007
313.15 K, x2 = 0.2073 | 0.494 ± 0.004
313.15 K, x2 = 0.4055 | 0.541 ± 0.005
313.15 K, x2 = 0.5078 | 0.568 ± 0.005
313.15 K, x2 = 0.601 | 0.593 ± 0.005
313.15 K, x2 = 0.802 | 0.661 ± 0.005

CCN(CC)CC + ClC(Cl)Cl
298.15 K, 101 kPa
Details | viscosity [mPa·s]
x2 = 0.0983 | 0.389 ± 0.008
x2 = 0.1979 | 0.442 ± 0.008
x2 = 0.2978 | 0.503 ± 0.008
x2 = 0.3989 | 0.567 ± 0.009
x2 = 0.4988 | 0.618 ± 0.009
x2 = 0.5829 | 0.64 ± 0.01
x2 = 0.6859 | 0.631 ± 0.01
x2 = 0.8008 | 0.604 ± 0.009
x2 = 0.901 | 0.574 ± 0.009

ClC(Cl)(Cl)Cl + ClC(Cl)Cl
Details | viscosity [mPa·s]
293.15 K, 101.33 kPa, x1 = 0.2087 | 0.6645 ± 0.0066
293.15 K, 101.33 kPa, x1 = 0.517 | 0.7319 ± 0.0073
293.15 K, 101.33 kPa, x1 = 0.9083 | 0.9238 ± 0.0092
298.15 K, 101 kPa, x1 = 0.1566 | 0.569 ± 0.008
298.15 K, 101 kPa, x1 = 0.5099 | 0.659 ± 0.009
298.15 K, 101 kPa, x1 = 0.7699 | 0.761 ± 0.01
298.15 K, 101 kPa, x2 = 0.2298 | 0.761 ± 0.02
298.15 K, 101 kPa, x2 = 0.51 | 0.659 ± 0.017
298.15 K, 101 kPa, x2 = 0.8437 | 0.569 ± 0.015
298.15 K, 101.33 kPa, x1 = 0.2087 | 0.6296 ± 0.0063
298.15 K, 101.33 kPa, x1 = 0.517 | 0.6888 ± 0.0069
298.15 K, 101.33 kPa, x1 = 0.9083 | 0.8561 ± 0.0086
298.16 K, 101 kPa, x2 = 0.151 | 0.816 ± 0.022
298.16 K, 101 kPa, x2 = 0.328 | 0.732 ± 0.019
298.16 K, 101 kPa, x2 = 0.61 | 0.633 ± 0.017
298.16 K, 101 kPa, x2 = 0.803 | 0.583 ± 0.015
303.15 K, 101.3 kPa, x1 = 0.502 | 0.6248 ± 0.0052
303.15 K, 101.33 kPa, x1 = 0.2087 | 0.5964 ± 0.006
303.15 K, 101.33 kPa, x1 = 0.517 | 0.6543 ± 0.0065
303.15 K, 101.33 kPa, x1 = 0.9083 | 0.8041 ± 0.008
308.15 K, 101.33 kPa, x1 = 0.2087 | 0.5644 ± 0.0056
308.15 K, 101.33 kPa, x1 = 0.517 | 0.6241 ± 0.0062
308.15 K, 101.33 kPa, x1 = 0.9083 | 0.7523 ± 0.0075
313.15 K, 101.33 kPa, x1 = 0.2087 | 0.5501 ± 0.0055
313.15 K, 101.33 kPa, x1 = 0.517 | 0.5928 ± 0.0059
313.15 K, 101.33 kPa, x1 = 0.9083 | 0.7143 ± 0.0071
318.15 K, 101.33 kPa, x1 = 0.2087 | 0.523 ± 0.0052
318.15 K, 101.33 kPa, x1 = 0.517 | 0.5657 ± 0.0057
318.15 K, 101.33 kPa, x1 = 0.9083 | 0.6686 ± 0.0067
323.15 K, 101.33 kPa, x1 = 0.2087 | 0.5032 ± 0.005
323.15 K, 101.33 kPa, x1 = 0.517 | 0.5444 ± 0.0054
323.15 K, 101.33 kPa, x1 = 0.9083 | 0.6335 ± 0.0063

ClC(Cl)(Cl)Cl + ClCCCl
303.15 K, 101.3 kPa
Details | viscosity [mPa·s]
x2 = 0.1081 | 0.7755 ± 0.0063
x2 = 0.1414 | 0.7609 ± 0.0062
x2 = 0.1994 | 0.739 ± 0.006
x2 = 0.3171 | 0.7081 ± 0.0058
x2 = 0.3777 | 0.6975 ± 0.0057
x2 = 0.5001 | 0.6832 ± 0.0056
x2 = 0.5454 | 0.6817 ± 0.0056
x2 = 0.5978 | 0.6814 ± 0.0056
x2 = 0.6503 | 0.6809 ± 0.0056
x2 = 0.6758 | 0.6824 ± 0.0056
x2 = 0.7592 | 0.6879 ± 0.0057
x2 = 0.8193 | 0.6942 ± 0.0057
x2 = 0.8711 | 0.7016 ± 0.0058
x2 = 0.8965 | 0.7055 ± 0.0058
x2 = 0.934 | 0.7126 ± 0.0058

ClC(Cl)(Cl)Cl + Clc1ccccc1
298.15 K, 101 kPa
Details | viscosity [mPa·s]
x2 = 0.2 | 0.844 ± 0.0087
x2 = 0.4 | 0.81 ± 0.0083
x2 = 0.6 | 0.787 ± 0.008
x2 = 0.8 | 0.769 ± 0.0077

FCCl + FC(F)(Cl)C(F)(F)Cl
Details | viscosity [mPa·s]
312.21 K, 101.13 kPa, x1 = 0.754 | 0.2322 ± 0.0027

CC1CCCCC1O (stereo not drawn) + NC1CCCCC1
viscosity [mPa·s], 100 kPa
Details | x1 = 0.04642 | x1 = 0.09319 | x1 = 0.1878 | x1 = 0.2839 | x1 = 0.3814 | x1 = 0.4805 | x1 = 0.5811 | x1 = 0.6834 | x1 = 0.7872 | x1 = 0.8928
293.15 K | 2.657 ± 0.058 | 2.965 ± 0.065 | 3.533 ± 0.077 | 4.632 ± 0.1 | 5.819 ± 0.13 | 7.685 ± 0.17 | 11.76 ± 0.26 | 15.63 ± 0.34 | 20 ± 0.44 | 27.62 ± 0.6
298.15 K | 2.328 ± 0.051 | 2.582 ± 0.056 | 3.048 ± 0.066 | 3.894 ± 0.085 | 4.852 ± 0.11 | 6.53 ± 0.14 | 9.343 ± 0.2 | 12.39 ± 0.27 | 15.17 ± 0.33 | 19.95 ± 0.44
303.15 K | 2.057 ± 0.045 | 2.27 ± 0.05 | 2.656 ± 0.058 | 3.351 ± 0.073 | 4.096 ± 0.089 | 5.343 ± 0.12 | 7.677 ± 0.17 | 9.722 ± 0.21 | 11.73 ± 0.26 | 14.98 ± 0.33
308.15 K | 1.833 ± 0.04 | 2.008 ± 0.044 | 2.335 ± 0.051 | 3.042 ± 0.066 | 3.498 ± 0.076 | 4.468 ± 0.097 | 6.235 ± 0.14 | 7.748 ± 0.17 | 9.687 ± 0.21 | 11.45 ± 0.25
313.15 K | 1.645 ± 0.036 | 1.791 ± 0.039 | 2.068 ± 0.045 | 2.65 ± 0.058 | 3.018 ± 0.066 | 3.782 ± 0.083 | 5.118 ± 0.11 | 6.295 ± 0.14 | 7.365 ± 0.16 | 8.876 ± 0.19

ClC(Cl)(Cl)Cl + Nc1ccccc1
298.15 K, 101.32 kPa
Details | viscosity [mPa·s]
x2 = 0.1018 | 0.991 ± 0.0008
x2 = 0.2047 | 1.111 ± 0.0008
x2 = 0.325 | 1.297 ± 0.0009
x2 = 0.3901 | 1.418 ± 0.0009
x2 = 0.4954 | 1.655 ± 0.001
x2 = 0.5976 | 1.914 ± 0.0011
x2 = 0.7051 | 2.263 ± 0.0011
x2 = 0.8076 | 2.672 ± 0.0012
x2 = 0.9265 | 3.3 ± 0.0013
